Measured values from patent US20230295182A1, “SPIRO DERIVATIVES OF ALPHA-D-GALACTOPYRANOSIDES” (Idorsia Pharmaceuticals Ltd, priority 2020, published 2023).
Read-outs that look alike come from different tables or passages of the source.

Assays:
[1] = target: human Gal-1 (hGal-1) (Homo sapiens, UniProt P09382); experiment: Competitive binding assay: biotinylated hGal-1 to microplate-adsorbed asialofetuin (ASF)
Method in brief: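 Plate-adsorbed asialofetuin is incubated 3 h at 4 °C with biotinylated hGal-1, optionally its all-serine-substituted cysteine variant, plus compound dilutions. ABTS color after 1 h streptavidin-peroxidase (80 ng/mL) at 4 °C reports binding. Reported IC50 is a mean across repeat runs.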

[2] = target: human Gal-3 (hGal-3) (Homo sapiens (Human), UniProt P17931); experiment: Competitive binding assay: biotinylated hGal-3 to microplate-adsorbed asialofetuin (ASF); conditions: Activity on hGal-3; binding to ASF-coated plates, 3 hours at 4° C.; mean values
Method in brief: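 Biotinylated hGal-3 (300-1000 ng/mL) binding to plate-adsorbed asialofetuin, with DMSO-diluted compound added, incubated 3 h at 4 °C. After washing, bound protein detected with streptavidin-peroxidase (80 ng/mL, 1 h, 4 °C) and ABTS substrate, read spectrophotometrically. IC50 given as mean of several measurements.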

[3] = Activities on hGal-1; binding to ASF-coated plates, 3 hours at 4° C.; mean values; read-out: Gal-1 IC50

Chain of human Gal-1 (hGal-1) (P09382 2-135 limits assumed): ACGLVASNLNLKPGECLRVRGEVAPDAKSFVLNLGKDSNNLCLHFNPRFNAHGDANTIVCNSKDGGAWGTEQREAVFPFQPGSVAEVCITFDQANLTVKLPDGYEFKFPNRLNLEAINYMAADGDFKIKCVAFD
Chain of human Gal-3 (hGal-3) (P17931 whole entry): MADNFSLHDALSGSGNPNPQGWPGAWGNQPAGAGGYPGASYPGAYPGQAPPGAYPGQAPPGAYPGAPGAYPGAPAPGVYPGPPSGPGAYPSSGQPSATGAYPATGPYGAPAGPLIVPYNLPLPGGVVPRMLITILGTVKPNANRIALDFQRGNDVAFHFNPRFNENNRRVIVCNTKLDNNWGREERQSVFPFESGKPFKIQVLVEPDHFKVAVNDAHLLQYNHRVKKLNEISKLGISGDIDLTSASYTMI

SMILES	IC50 [1, 3] [µM]	IC50 [2] [µM]	IC50 ([1]; read-out: Gal-1 IC50; Activities on hGal-1; binding to ASF-coated plates, 3 hours at 4° C.; mean values) [µM]
CO[C@@H]1[C@@H](n2cc(-c3ccc(Cl)c(F)c3F)nn2)[C@@H](O)[C@@H](CO)O[C@@H]1CC1=NOC2(C1)C[C@@H](C(=O)O)N(C(=O)OC(C)(C)C)C2 (mixture of isomers) [Example 1.78, (5RS,8S)-7-(tert-butoxycarbonyl)-3-(((2R,3R,4S,5R,6R)-4-(4-(4-chloro-2,3-difluorophenyl)-1H-1,2,3-triazol-1-yl)-5-hydroxy-6-(hydroxymethyl)-3-methoxytetrahydro-2H-pyran-2-yl)methyl)-1-oxa-2,7-diazaspiro[4.4]non-2-ene-8-carboxylic acid]	12	0.27	–
CO[C@@H]1[C@@H](n2cc(-c3ccc(C)c(F)c3F)nn2)[C@@H](O)[C@@H](CO)O[C@@H]1CC1=NO[C@]2(CC[C@@H](NC(=O)OC(C)(C)C)CC2)C1 [Example 1.44, tert-butyl ((5s,8S)-3-(((2R,3R,4S,5R,6R)-4-(4-(2,3-difluoro-4-methylphenyl)-1H-1,2,3-triazol-1-yl)-5-hydroxy-6-(hydroxymethyl)-3-methoxytetrahydro-2H-pyran-2-yl)methyl)-1-oxa-2-azaspiro[4.5]dec-2-en-8-yl)carbamate]	4.9	0.1	–
CO[C@@H]1[C@@H](n2cc(-c3ccc(C)c(F)c3F)nn2)[C@@H](O)[C@@H](CO)O[C@@H]1CC1=NOC2(C1)CC1CCC2C1 (stereo partly drawn) [Example 1.81, (2R,3R,4S,5R,6R)-6-((4′H-spiro[bicyclo[2.2.1]heptane-2,5′-isoxazol]-3′-yl)methyl)-4-(4-(2,3-difluoro-4-methylphenyl)-1H-1,2,3-triazol-1-yl)-2-(hydroxymethyl)-5-methoxytetrahydro-2H-pyran-3-ol]	2.37	0.06	–
CO[C@@H]1[C@@H](n2cc(-c3cc(F)c(F)c(F)c3)nn2)[C@@H](O)[C@@H](CO)O[C@@H]1CC1=NO[C@]2(CC[C@@H](C(C)C)CC2)C1 [Example 1.28, (2R,3R,4S,5R,6R)-2-(hydroxymethyl)-6-(((5s,8S)-8-isopropyl-1-oxa-2-azaspiro[4.5]dec-2-en-3-yl)methyl)-5-methoxy-4-(4-(3,4,5-trifluorophenyl)-1H-1,2,3-triazol-1-yl)tetrahydro-2H-pyran-3-ol]	6.9	2	–
CO[C@@H]1[C@@H](n2cc(-c3ccc(Cl)c(F)c3F)nn2)[C@@H](O)[C@@H](CO)O[C@@H]1CC1=NO[C@]2(CC[C@@H](C#N)CC2)C1 [Example 1.60, (5s,8S)-3-(((2R,3R,4S,5R,6R)-4-(4-(4-chloro-2,3-difluorophenyl)-1H-1,2,3-triazol-1-yl)-5-hydroxy-6-(hydroxymethyl)-3-methoxytetrahydro-2H-pyran-2-yl)methyl)-1-oxa-2-azaspiro[4.5]dec-2-ene-8-carbonitrile]	1.6	0.09	–
CO[C@@H]1[C@@H](n2cc(-c3ccc(C)c(F)c3F)nn2)[C@@H](O)[C@@H](CO)O[C@@H]1CC1=NOC2(CCNC(=O)CC2)C1 (mixture of isomers) [Example 1.76]	2.7	0.11	–
CO[C@@H]1[C@@H](n2cc(-c3cc(F)c(F)c(F)c3)nn2)[C@@H](O)[C@@H](CO)O[C@@H]1CC1=NOC2(CCN(S(C)(=O)=O)CC2)C1 [Example 2.31, (2R,3R,4S,5R,6R)-2-(hydroxymethyl)-5-methoxy-6-((8-(methylsulfonyl)-1-oxa-2,8-diazaspiro[4.5]dec-2-en-3-yl)methyl)-4-(4-(3,4,5-trifluorophenyl)-1H-1,2,3-triazol-1-yl)tetrahydro-2H-pyran-3-ol]	3.5	0.53	–
CO[C@@H]1[C@@H](n2cc(-c3ccc(C)c(F)c3)nn2)[C@@H](O)[C@@H](CO)O[C@@H]1CC1=NOC2(CCCCC2)C1 [Example 1.20, (2R,3R,4S,5R,6R)-6-((1-oxa-2-azaspiro[4.5]dec-2-en-3-yl)methyl)-4-(4-(3-fluoro-4-methylphenyl)-1H-1,2,3-triazol-1-yl)-2-(hydroxymethyl)-5-methoxytetrahydro-2H-pyran-3-ol]	5.3	0.12	–
OC[C@H]1O[C@H](CC2=NOC3(CCCCC3)C2)[C@H](O)[C@@H](n2cc(-c3cc(F)c(F)c(F)c3)nn2)[C@H]1O [Example 1.05, (2R,3R,4R,5R,6R)-2-((1-oxa-2-azaspiro[4.5]dec-2-en-3-yl)methyl)-6-(hydroxymethyl)-4-(4-(3,4,5-trifluorophenyl)-1H-1,2,3-triazol-1-yl)tetrahydro-2H-pyran-3,5-diol]	–	0.28	2.2
CO[C@@H]1[C@@H](n2cc(-c3ccc(F)c(F)c3F)nn2)[C@@H](O)[C@@H](CO)O[C@@H]1CC1=NO[C@]2(CC[C@@H](C(C)(C)O)CC2)C1 [Example 1.53, (2R,3R,4S,5R,6R)-2-(hydroxymethyl)-6-(((5s,8S)-8-(2-hydroxypropan-2-yl)-1-oxa-2-azaspiro[4.5]dec-2-en-3-yl)methyl)-5-methoxy-4-(4-(2,3,4-trifluorophenyl)-1H-1,2,3-triazol-1-yl)tetrahydro-2H-pyran-3-ol]	1.2	0.27	–
CO[C@@H]1[C@@H](n2cc(-c3ccc(F)c(F)c3F)nn2)[C@@H](O)[C@@H](CO)O[C@@H]1CC1=NO[C@]2(CC[C@H](NC(=O)OC(C)(C)C)CC2)C1 [Example 1.41, tert-butyl ((5r,8R)-3-(((2R,3R,4S,5R,6R)-5-hydroxy-6-(hydroxymethyl)-3-methoxy-4-(4-(2,3,4-trifluorophenyl)-1H-1,2,3-triazol-1-yl)tetrahydro-2H-pyran-2-yl)methyl)-1-oxa-2-azaspiro[4.5]dec-2-en-8-yl)carbamate]	0.3	0.012	–
O=C(CO[C@@H]1[C@@H](n2cc(-c3cc(F)c(F)c(F)c3)nn2)[C@@H](O)[C@@H](CO)O[C@@H]1CC1=NOC2(CCCCC2)C1)N1CCOCC1 [Example 1.71, 2-(((2R,3R,4S,5R,6R)-2-((1-oxa-2-azaspiro[4.5]dec-2-en-3-yl)methyl)-5-hydroxy-6-(hydroxymethyl)-4-(4-(3,4,5-trifluorophenyl)-1H-1,2,3-triazol-1-yl)tetrahydro-2H-pyran-3-yl)oxy)-1-morpholinoethan-1-one]	2.9	0.2	–
CCOC(=O)N[C@H]1CC[C@]2(CC1)CC(C[C@H]1O[C@H](CO)[C@H](O)[C@H](n3cc(-c4ccc(F)c(F)c4F)nn3)[C@H]1OC)=NO2 [Example 2.10, ethyl ((5r,8R)-3-(((2R,3R,4S,5R,6R)-5-hydroxy-6-(hydroxymethyl)-3-methoxy-4-(4-(2,3,4-trifluorophenyl)-1H-1,2,3-triazol-1-yl)tetrahydro-2H-pyran-2-yl)methyl)-1-oxa-2-azaspiro[4.5]dec-2-en-8-yl)carbamate]	0.32	0.02	–
CO[C@@H]1[C@@H](n2cc(-c3cc(F)c(F)c(F)c3)nn2)[C@@H](O)[C@@H](CO)O[C@@H]1CC1=NOC2(CCNCC2)C1 [Example 1.07, (2R,3R,4S,5R,6R)-6-((1-oxa-2,8-diazaspiro[4.5]dec-2-en-3-yl)methyl)-2-(hydroxymethyl)-5-methoxy-4-(4-(3,4,5-trifluorophenyl)-1H-1,2,3-triazol-1-yl)tetrahydro-2H-pyran-3-ol]	5.7	0.32	–
